In US5663207A, “Gem-dichlorocyclopropanes as antitumor agents” (priority 1995, dated 1997):
Entries after “also recorded” stand apart in the source; their conditions may differ. Like-named read-outs stand apart in the source and are kept apart here.

Tests used:
[1] = Stability observed during isolation and storage; format: physicochemical; details: on concentration, drying or storage
Protocol: The structures of all compounds were supported by their proton NMR spectra, which were measured on either a Varian EM-360A or XL-300 spectrometer. The spectra are reported in parts per million in CDCl3 unless otherwise noted, with tetramethysilane as the internal standard. Infrared spectra were obtained from KBr pellets on a Beckman Acculab 1 spectrometer and were consistent with the assigned structures. Silica gel (for example, obtained commercially from J. T. Baker) of approximately 40 μm diameter was used for flash chromatography (STILL, W. C., KAHN, M. AND MITRA, A. (1978), "Rapid chromatographic technique for preparative separations with moderate resolutions", Journal of Organic Chemistry, 43, 2923), which was performed at 5-10 psi. Petroleum ether was of bp 30°-60° C. When necessary, solvents or reagents were dried by appropriate methods. Evaporations were carried out in vacuo on a rotary evaporator or under a stream of dry N2. Melting points were taken on a Thomas-Hoover capillary melting point apparatus and are uncorrected. Reaction progress and product purity were monitored by analytical TLC on strips of Eastman Kodak plastic-backed SiO2 60 F254 or Al2 O3 F254. Developed strips were viewed under light of 254 and 365 nm wavelengths. Elemental analyses were done by Midwest Microlab Ltd., Indianapolis, IN. Acceptable elemental results are denoted in Table I by the formula, followed by the elements analyzed. Melting points and yields of all compounds were based on pure samples unless otherwise noted, are listed in Table I. Para-Bromoanisole, p-methoxydeoxybenzoin, anisole, p-methoxybenzaldehyde, and 2,3-bis-(p-methoxyphenyl)-acrylic acid and trans-p-methoxystilbene (the olefin), were purchased from Aldrich & Co. The cyclopropanes 1,1-dichloro-cis-2-(p-hydroxyphenyl)-3-phenylcyclopropane (9), and its trans isomer 1,1-dichloro-trans-2-(p-Hydroxyphenyl)-3phenylcyclopropane (17) were prepared from Compounds 8 & 16, respectively. […] Tamoxifen was obtained from Stuart Pharmaceuticals, Division of ICI Americas, Inc., Wilmington, Del. 19897. MER 25 was obtained from the Merrell Dow Research Institute, Division of Merrell Dow Pharmaceuticals, Inc., Cincinnati, Ohio. Protein Assay Reagent, Pierce Chemical Co., Rockford, Ill. 61105. Diethylstilbestrol, β-estradiol, EDTA, DL-dithiothreitol, Sodium molybdate, and Tris (hydroxymethyl) aminomethane hydrochloride were purchased from Sigma Chemical Co., St. Louis, Mo. 63178.
Essentially, the intermediate olefin acids (Compounds 6 & 12) were obtained from a mixed Perkin and Knoevenagel-type condensation involving the reaction of p-methoxyaldehyde (Compound 4) with phenylacetic acid (Compound 5), or p-methoxyphenylacetic acid (Compound 11) in triethylamine and acetic anhydride. To prepare cis-p-methoxystilbene (Compound 7) or bis-(p-methoxy)-cis-stilbene (Compound 13). Decarboxylation of 6 & 12 with quinoline (prevents isomerizations; KLEIN, J. AND MEYER, A. Y. (1964), "The decarboxylation of α-cyano-and α-carboxycinnamic acids", Journal of Organic Chemistry, 29, 1038), and copper chromite at elevated temperature provided 7 & 13. High temperature during distillation caused 8% isomerization to the trans-isomer (15), which was isolated by column chromatography. Dichlorocarbene generation used the catalytic phase transfer method (21, 37) (used extensively in our laboratory) of 50% aqueous solution of NaOH, CHCl3 and benzyltriethylammonium chloride (TEBA) as the anion transfer agent. […]

[2] = tested on: MCF-7 human breast cancer cells; details: cited from earlier work; for MCF-7 Inhibition: 10^-6 M, Day et al., J. Med. Chem. 34, 842-851 (1991)
[3] = molecular target: T1, estrogen receptor (Rattus norvegicus, UniProt P06211); details: relative to estradiol = 100%; Day et al., J. Med. Chem. 34, 842-851 (1991); cited from earlier work
T1 construct: ovariectomized rat uterine cytosolic estrogen receptor preparation; from tissue; host or cells: uterine cytosol of ovariectomized Sprague-Dawley rats (immature rats from Sasco are named as uterus source, mature ovariectomized rats)
T1 sequence (P06211 1-600): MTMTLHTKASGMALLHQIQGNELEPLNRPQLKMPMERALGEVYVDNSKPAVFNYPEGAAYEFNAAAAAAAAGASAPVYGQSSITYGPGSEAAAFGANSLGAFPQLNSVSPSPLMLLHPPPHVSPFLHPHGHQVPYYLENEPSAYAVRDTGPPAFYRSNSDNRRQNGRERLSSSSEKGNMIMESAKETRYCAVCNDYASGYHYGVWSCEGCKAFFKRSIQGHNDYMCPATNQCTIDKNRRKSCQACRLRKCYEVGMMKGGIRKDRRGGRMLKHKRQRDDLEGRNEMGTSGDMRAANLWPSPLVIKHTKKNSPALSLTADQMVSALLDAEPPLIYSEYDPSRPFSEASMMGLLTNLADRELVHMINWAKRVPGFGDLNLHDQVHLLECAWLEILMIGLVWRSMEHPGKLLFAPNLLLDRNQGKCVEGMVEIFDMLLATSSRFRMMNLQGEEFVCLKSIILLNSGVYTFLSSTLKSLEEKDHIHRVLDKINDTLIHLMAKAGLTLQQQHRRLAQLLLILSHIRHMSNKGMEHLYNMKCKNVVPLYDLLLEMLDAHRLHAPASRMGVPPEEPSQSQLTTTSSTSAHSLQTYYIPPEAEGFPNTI

[4] = molecular target: T1, estrogen receptor; test: Receptor binding assay: displacement of [3H]-estradiol from rat uterine cytosol; parameters: species or system rat (Sprague-Dawley); details: relative to estradiol = 100%; average of duplicate determinations minus nonspecific binding
Text: (§1) The biological evaluation of the test compounds consisted of the in vitro rat cytosolic estradiol receptor binding assay, the in vivo immature mouse uterotrophic (estrogenic) and antiuterotrophic (antiestrogenic) assays, and the in vitro suppression of the proliferation of the ER positive MCF-7 human breast cancer cell line. Estradiol (pure agonist), TAM (agonist in mice and antagonist in MCF-7), MER 25 (pure antagonist) and Analog II (antagonist in mice) were used in the assay as standards.
(§2) Vital-free immature female Swiss-Webster mice were obtained at 17-19 days of age from Sasco weighing 8-10 g, and were used in the uterotrophic and antiuterotrophic assays. Immature female Sprague-Dawley rats, obtained at 17-19 days of age from Sasco, weighing 28-33 g, were used as sources of uteri for the estradiol receptor binding assay. Animals were housed in wire topped polycarbonate cages at six animals per cage, with the environment controlled at 25° C. and a 12 h light/dark cycle. The animals received a diet of Wayne Lab Blox rodent chow and tap water ad libitum.
The RBAs of the test compounds were determined by the displacement of [^3 H]-estradiol in vitro, as described previously (DAY, B. W., […], R. A., JAIN, P., PENTO, J. T., MOUSISSIAN, G. K. AND MEYER, K. L. (1991), "Synthesis and biological evaluation of a series of 1,1-dichloro-2,2,3-triarylcyclopropanes as pure antiestrogens", Journal of Medicinal Chemistry, 34, 842; KORENMAN, S. G. (1969), "Comparative binding affinity of estrogens and its relation to estrogenic potency", Steroid, 13, 163). Mature female Sprague-Dawley rats were ovariectomized at least two weeks prior to the receptor binding experiment. Each test compound was assayed at three concentrations in duplicate over a range of 10^-3 -10^-5 M and 10^-6 -10^-8 M for the estradiol standard. The non-specific binding was determined by a parallel incubation of each compound with the addition of diethylstilbestrol to give a final concentration of 2×10^-5 M DES which was sufficient to saturate all the estrogen receptors present in the cytosolic fraction. Specific displacement for each compound was determined by subtraction of nonspecific displacement from total displacement. The [^3 H]-estradioldisplacement curve for each test compound was determined by linear repression analysis and plotted graphically. The relative binding affinity for each compound was calculated (BLISS, C.I. (1967), "The statistics in biology", McGraw Hill, Inc: New York).
^a Determined by competitive radiometric binding assay with rat
uterine cytosol as a source of receptor, [^3 H]estradiol as tracer,
and dextrancoated charcoal as absorbant for free ligand.
^c Binding affinities are expressed relative to that of estradiol =
100% (RBA = relative binding affinity) and are the average of duplicate
determinations minus nonspecific binding.
The relative binding affinities (RBAs), as determined by the competitive radiometric binding assay and measured by [^3 H]-estradiol displacement from the ovariectomized rat uterine cytosolic estrogen receptor preparation, after subtracting non-specific receptor binding, were calculated for all of the synthesized target compounds, TAM, MER 25, Analog II, and estradiol. The displacement curves were plotted as percent receptor-bound [^3 H]-estrodiol versus concentration of test compounds (not shown) and the receptor binding affinity of each compound is presented in Table II.

[5] = tested on: MCF-7 human breast cancer cells; test: In vitro MCF-7 human breast cancer cell growth inhibition assay; format: cell-based
Text: as §1
MCF-7 (estrogen-receptor positive) human breast cancer cells (obtained from the Michigan Cancer Foundation, Detroit, Mich.) were grown at 37° C. in 75 cm^2 tissue culture (T-75) flasks, as monolayer cultures in RPMI 1640 phenol red-free media supplemented with 2 mM L-glutamine, gentamicin (50 μg/mL), penicillin (100 units/mL), streptomycin (100 μg/mL ) and calf serum (5%). Cultures were grown in an incubator 37° C. in a humid 5% CO2 atmosphere, and fed on alternate days. Expotential growth was maintained by subculturing at eight day intervals when the cells per T-75 flask reached 10 to 12×10^6 cells. Cells were trypsinized, washed and plated in multiwell plates at a density of 5×10^4 cells/well in 3 mL of RPMI 1640 media. The cells were allowed to attach and were in logarithmic growth when the test compounds were added. The test compounds (10^-6 M) in the presence or absence of a 10-fold lower dose of estradiol were dissolved in a polyethylene glycol 400: ethanol (55:45) mixture and added in the culture media in duplicate. Control samples received vehicle alone at the same concentration used in the treatment groups. The final concentration of the vehicle mixture was 0.1% of the incubation media. Cell growth was measured on alternate days using the hemocytometric trypan blue exclusion method. Percent inhibition of MCF-7 cells was calculated as the ratio of the control mean cell count per well minus the treatment group mean cell count per well to the control mean cell count per well, multiplied by 100.
^b % MCF7 inhibition was calculated as follows: […]
Thirteen compounds, Analog II, TAM, and MER 25 were tested for their antiproliferative activity in the MCF-7 human breast cancer cell line (Table II). Compounds were tested at a concentration of 10^-6 M in the presence or absence of 10^-7 M estradiol to assess their ability to alter the growth of the calls (Table II). The 10^-6 M concentration was selected since it was reported that the inhibition of the MCF-7 cells by antiestrogens and TAM occurred either at that concentration or less, and were both selective and estrogen receptor specific. Concentrations of antiestrogens greater than 5×10^-6 M were reported to have nonspecific cytotoxic effects (BRIAND, P. AND […], A. E. (1984), "Effect of estrogen and antiestrogen on the human breast cancer cell line MCF-7 adapted to growth at low serum concentration", Cancer Research, 44, 1114).

[6] = tested on: Immature Swiss-Webster female mice (uterine weight); test: Uterotrophic assay for estrogenic activity in immature mice; format: in vivo, mouse (Swiss-Webster); details: doses of 5, 25 and 100 μg (total dose)
Text: The biological evaluation of the test compounds consisted of the in vitro rat cytosolic estradiol receptor binding assay, the in vivo immature mouse uterotrophic (estrogenic) and antiuterotrophic (antiestrogenic) assays, and the in vitro suppression of the proliferation of the ER positive MCF-7 human breast cancer cell line.
as §2
Immature Swiss-Webster female mice (8-15 g) at 17-19 days of age were used. Estradiol was used in the dosage range of […] (total dose) as the assay standard. Each cyclopropyl analogue was examined at doses of 5, 25, and 100 μg (total dose). […] Estrogenic activity was measured as an increase in uterine weight produced by each test compound.

SMILES: Oc1ccc([C@H]2[C@@H](c3ccccc3)C2(Cl)Cl)cc1 (relative stereo) [Compound 9, 1,1-dichloro-cis-2-(p-hydroxyphenyl)-3-phenylcyclopropane]
- stability (in words) [1]: instability to air and light; also recorded: underwent gradual color changes when concentrated

SMILES: Oc1ccc([C@H]2[C@H](c3ccccc3)C2(Cl)Cl)cc1 (relative stereo) [Compound 17, 1,1-dichloro-trans-2-(p-hydroxyphenyl)-3-phenylcyclopropane]
- stability (in words) [1]: underwent gradual color changes when concentrated

SMILES: ClC1(Cl)[C@H](c2ccccc2)[C@@H]1c1ccccc1 [Analog II]
- MCF-7 Inhibition [2]: 20.4%
- RBA (relative binding affinity) [3]: 0.01%

SMILES: Oc1ccc(C2(c3ccc(O)cc3)C(c3ccccc3)C2(Cl)Cl)cc1 (centres unmarked) [Compound 36]
- stability (in words) [1]: Drying of phenol 36 at a high temperature resulted in the formation of an indene

SMILES: CC(=O)Oc1ccc(C2(c3ccc(OC(C)=O)cc3)C(c3ccccc3)C2(Cl)Cl)cc1 (centres unmarked) [Compound 37, 1,1-Dichloro-2,2-bis-(p-acetoxyphenyl)-3-phenylcyclopropane]
- RBA (relative binding affinity) [4]: 0.08%
- effect on MCF-7 cell growth (in words) ([5]; 10^-6 M): did not alter cell growth
- inhibition at 1 µM ([5]; Homo sapiens, MCF7, read-out: MCF-7 Inhibition): < 10%
- uterine weight response (estrogenic activity, in words) [6]: well below the control group

SMILES: CC/C(=C(\c1ccccc1)c1ccc(OCCN(C)C)cc1)c1ccccc1 [Tamoxifen]
- MCF-7 Inhibition [2]: 25.6%
- concentration at which inhibition of MCF-7 cells occurred ([2]; reported as selective and estrogen receptor specific): ≤ 10^-6 M
